≈ marks a conversion by molar mass, not a printed value.

For the series the following is noted: buffer; pH 7.4; 200.0 µM.
In turn, `Cc1ccc(C(=O)NC(C)C2CC3CCC2C3)c(C)c1` (configuration not stated) gave a solubility (kinetic) of 29.9 µg/mL (≈ 110 µM).
Under `CN(c1nc2ccccc2[nH]c1=O)C1CCCCC1` stands 2.9 µg/mL (≈ 11.3 µM); under `CC(=O)NC(CC(=O)N(C)C1CCCCC1)c1ccccc1` (configuration not stated), above 45.4 µg/mL; under `O=S(=O)(NC1CC1)c1ccccc1`, 28.3 µg/mL (≈ 143 µM).
`COc1ccccc1C(O)c1nccn1C` (configuration not stated) returned a kinetic solubility above 32.7 µg/mL.
Under `N#Cc1cccc(C(=O)Nc2ccc(S(=O)(=O)Nc3nccs3)cc2)c1` stands above 57.7 µg/mL; under `CC(C)(ONC(=O)Nc1ccccc1Cl)C(=O)O`, above 40.9 µg/mL; under `CN(C(=O)C1CCN(S(=O)(=O)c2ccccc2[N+](=O)[O-])CC1)C1CCCCC1`, 52.9 µg/mL (≈ 129 µM).
With `CCOc1ccccc1NC(=O)COc1ccc2c(c1)OCO2`, the solubility (kinetic) is below 0.7 µg/mL.
In the case of `O=C(O)c1cccc(N2C(=O)CSC2c2ccccc2)c1` (configuration not stated) it was above 44.9 µg/mL; in that of `COc1ccc(C(=O)N=c2sccn2C)cc1`, 36.1 µg/mL (≈ 145 µM); in that of `O=C(Cn1cc([N+](=O)[O-])cn1)N1CCN(c2ccccc2)CC1`, above 47.3 µg/mL.
In the case of `CCn1c(=O)c2sccc2n(Cc2cccc(C)c2)c1=O`, the kinetic solubility came out at 9 µg/mL (≈ 30 µM).
In the case of `Cc1cc(C)c(NC(=O)Cn2c([N+](=O)[O-])cnc2C)c(C)c1` it was 4.1 µg/mL (≈ 13.6 µM); in that of `Cc1nc(CC(=O)Nc2nccs2)cs1`, above 35.9 µg/mL; in that of `COc1cc(NC(=O)C2C3CCC(O3)C2C(=O)O)cc(OC)c1` (configuration not stated), above 48.2 µg/mL.
As to `CC1CCCCN1C(=O)C1COc2ccccc2O1` (configuration not stated), the kinetic solubility worked out at 35.5 µg/mL (≈ 136 µM).
In turn, `COc1cc(Cl)c(C)cc1NC(=O)CCNC(=O)c1ccco1` displayed a kinetic solubility above 50.5 µg/mL.
In the case of `CC(=O)c1ccc(Sc2ccccc2N)c([N+](=O)[O-])c1` it was 19.6 µg/mL (≈ 68 µM); in that of `O=[N+]([O-])c1ccc(Sc2n[nH]c(-c3ccncc3)n2)nc1`, above 45 µg/mL.
Turning to `CN(Cc1cccc(Cl)c1Cl)C(=O)CCNC(=O)c1ccco1`, the solubility (kinetic) was above 53.3 µg/mL.
In the case of `Cc1ccc(S(=O)(=O)N2CCCN(C)CC2)cc1.Cl` it was above 45.7 µg/mL.
Consider `Fc1ccc(N=c2ssnc2Cl)c(F)c1`, for which the solubility (kinetic) is 7.5 µg/mL (≈ 28.3 µM).
In the case of `CCN1CCN(c2ccc(NC(=O)c3ccco3)cc2)CC1` it was 40.2 µg/mL (≈ 134 µM); in that of `Cc1ccc(OCC(=O)NCCCNC(=O)COc2ccc(C)cc2)cc1`, 15.1 µg/mL (≈ 40.8 µM).
With `O=C(CSc1nc2ccccc2[nH]1)NC1CCCC1`, the kinetic solubility amounted to 38.7 µg/mL (≈ 141 µM).
In the case of `CC(=O)N(C)c1ccc(NC(=O)Nc2cccc3ccccc23)cc1` it was 1.3 µg/mL (≈ 3.9 µM).
Under `CCCc1cc(C(=O)Nc2cccc([N+](=O)[O-])c2)cs1` stands 1.7 µg/mL (≈ 5.86 µM).
In the case of `O=C(NCc1ccc2c(c1)OCO2)C1CCCCC1` it was above 39.2 µg/mL.
`COc1ccc(N2C(=O)CC(c3ccc([N+](=O)[O-])cc3)C2=O)cc1` (configuration not stated) gave a solubility (kinetic) of 14.9 µg/mL (≈ 45.7 µM).
In the case of `O=C(COC(=O)c1cc(=O)c2ccccc2o1)Nc1ccccc1F` it was above 51.2 µg/mL; in that of `CCn1cnc2scc(-c3ccc(OC)cc3)c2c1=O`, above 43 µg/mL; in that of `COc1cccc(OC)c1C(=O)OCC(=O)NCC(C)C`, above 44.3 µg/mL.
In turn, `COc1cccc(NC(=O)CN(C)C(=O)[C@@H]2CCCN2C(=O)c2cccs2)c1` showed a kinetic solubility above 60.2 µg/mL.
On to `CCOC(=O)c1c(-c2cccc(N)c2)cn2ccccc12`, for which the kinetic solubility was 35.1 µg/mL (≈ 125 µM).
Compound `Cc1ccccc1NC(=O)N1CCN(C/C=C/c2ccccc2)CC1` gave a solubility (kinetic) above 50.3 µg/mL.
In the case of `CC(C)c1ccc(CNc2ncc(Br)cn2)cc1` it was 0.4 µg/mL (≈ 1.31 µM); in that of `Cc1c(C(=O)N2CCOCC2)oc2ccccc12`, above 36.8 µg/mL; in that of `CC(C)(C)c1cc(NC(=O)Nc2ccccc2OC(F)(F)F)no1`, below 0.2 µg/mL.
Under `Cc1ccc(NC(=O)O/N=C/c2ccc(F)cc2)cc1` stands 23.1 µg/mL (≈ 84.8 µM); under `O=C(O)C1=NN(c2c(F)c(F)cc(F)c2F)C(=O)CC1`, above 43.5 µg/mL.
Under `Cc1csc2c(N(C)CCO)ncnc12` stands above 33.5 µg/mL; under `CC(C)C(NC(=O)C(C)N1C(=O)c2ccccc2C1=O)c1ccccc1` (configuration not stated), above 52.6 µg/mL.
`COc1ccccc1N1Cc2ccc(OC)c(OC)c2C1=O` displayed a kinetic solubility above 44.9 µg/mL.
In turn, `NS(=O)(=O)c1cccc(NC(=O)CN2CCN(S(=O)(=O)c3ccc4c(c3)OCCO4)CC2)c1` gave a solubility (kinetic) above 74.5 µg/mL.
Regarding `Cc1ccc(NC(=O)COc2ccccc2)cc1Cl`, the kinetic solubility was determined as 2.4 µg/mL (≈ 8.7 µM).
On to `CCNC(=S)/N=C(/Nc1ccccc1)Nc1nc(C)cc(C)n1`, for which the kinetic solubility amounted to 0.8 µg/mL (≈ 2.44 µM).
As to `COc1cccc(NC(=O)c2ccccc2-c2ccccc2C(=O)O)c1`, the solubility (kinetic) worked out at 51.9 µg/mL (≈ 149 µM).
In the case of `Cc1noc(C)c1NC(=O)NCCN1CCN(Cc2ccccc2)CC1` it was above 53.6 µg/mL; in that of `CC1CC(C)CN(C(=O)COC(=O)Cc2ccc(Cl)cc2)C1` (configuration not stated), 41.3 µg/mL (≈ 128 µM); in that of `CN(C)/C=C/C(=O)c1cccc(C(F)(F)F)c1`, above 36.5 µg/mL.
Under `O=C(CN1C(=O)COc2ccccc21)NCC1CCCO1` (configuration not stated) stands above 43.5 µg/mL.

These data come from PubChem BioAssay AID1996.
